According to US10301272B2, “Carboxamide or sulfonamide substituted thiazoles and related derivatives as modulators for the orphan nuclear receptor ROR[γ]” (Phenex Pharmaceuticals AG, priority 2012, dated 2019):
Where two headings read alike, the source gives them in different places.

Key:
RORγ = RORγ (Homo sapiens, UniProt P51449); assay: RORγ Gal4 Reporter Gene Assay; format: cell-based
How it was run: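 Cells at 5×10^5/well were transfected with RORγ fragments fused to the GAL4 DNA-binding domain (CMV promoter), a 5×GAL4-site firefly luciferase reporter and CMV-Renilla luciferase for normalization. About 4 h later serum-free MEM and compound were added (vehicle ≤0.1%). Cultures at 37 °C, 5% CO2; at least triplicates.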

[1] = molecular target: RORγ ligand binding domain (LBD) (Homo sapiens (Human), UniProt P51449); assay: TR-FRET Activity Assay (ligand sensing assay, LANCE); details: TR-FRET, interaction of RORγ-LBD with coactivator peptide
RORγ ligand binding domain (LBD), sequence (P51449 269-508): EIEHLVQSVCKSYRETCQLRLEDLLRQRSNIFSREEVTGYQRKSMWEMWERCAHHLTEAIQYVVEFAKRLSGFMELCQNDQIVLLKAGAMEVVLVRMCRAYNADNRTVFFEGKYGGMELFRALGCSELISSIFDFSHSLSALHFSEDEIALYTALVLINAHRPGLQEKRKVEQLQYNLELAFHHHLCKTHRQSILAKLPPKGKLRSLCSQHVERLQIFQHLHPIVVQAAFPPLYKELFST

RORγ, sequence (P51449 whole entry, looked up, the tested form may be a part): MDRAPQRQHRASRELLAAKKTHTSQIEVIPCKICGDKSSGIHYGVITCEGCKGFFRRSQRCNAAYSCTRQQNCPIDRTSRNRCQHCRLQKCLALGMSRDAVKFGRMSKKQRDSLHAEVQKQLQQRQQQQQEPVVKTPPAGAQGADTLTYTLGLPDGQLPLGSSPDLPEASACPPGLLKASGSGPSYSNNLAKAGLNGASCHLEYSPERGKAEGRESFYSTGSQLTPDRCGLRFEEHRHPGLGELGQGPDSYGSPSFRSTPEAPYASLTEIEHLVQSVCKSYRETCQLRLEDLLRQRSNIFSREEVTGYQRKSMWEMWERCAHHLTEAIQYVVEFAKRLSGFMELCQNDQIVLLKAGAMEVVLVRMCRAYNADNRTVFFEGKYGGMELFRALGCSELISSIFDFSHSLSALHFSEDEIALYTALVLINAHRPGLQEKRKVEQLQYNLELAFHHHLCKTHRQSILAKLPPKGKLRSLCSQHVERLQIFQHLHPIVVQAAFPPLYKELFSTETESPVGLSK

CC(C)(C)c1cc(-c2cc(C(N)=O)ccc2CC2CCCCC2)cc(C(C)(C)C)c1 [Example 208, 3′,5′-Di-tert-butyl-6-(cyclohexylmethyl)-[1,1′-biphenyl]-3-carboxamide]
pIC50 (FF) (RORγ): 6.5/6.3/6.3 | pIC50 (REN) (RORγ): 6.5/6.3/6.3 | pIC50 (FRET) [1]: 6.5/6.3/6.3

CC(C)(C)c1cc(-c2ccc(C(N)=O)cc2CC2CCCCC2)cc(C(C)(C)C)c1 [Example 209]
pIC50 (FF) (RORγ): 6.4/6.2/6.2 | pIC50 (REN) (RORγ): 6.4/6.2/6.2 | pIC50 (FRET) [1]: 6.4/6.2/6.2

CCS(=O)(=O)c1ccc(CC(=O)Nc2nc(-c3ccccc3)c(Cc3ccccc3)s2)cc1 [Example 211, N-(5-Benzyl-4-phenylthiazol-2-yl)-2-(4-(ethylsulfonyl)phenyl)acetamide]
pIC50 (FF) (RORγ; firefly (FF) luciferase, 293T cells): 6.3 | pIC50 (REN) (RORγ; renilla normalised (RENnorm) luciferase, 293T cells): 6.4 | pIC50 (FRET) [1]: 5.8

CC(C)(C)NS(=O)(=O)c1ccc(-c2sc(C(=O)NC3CCS(=O)(=O)CC3)nc2Cc2ccccc2)c2ccccc12 [Example 300, 4-Benzyl-5-(4-(N-(tert-butyl)sulfamoyl)naphthalen-1-yl)-N-(1,1-dioxidotetrahydro-2H-thiopyran-4-yl)thiazole-2-carboxamide]
pIC50 (FF) (RORγ): 7.1/8.2/8.4 | pIC50 (REN) (RORγ): 7.1/8.2/8.4 | pIC50 (FRET) [1]: 7.1/8.2/8.4

CC(C)(C)NS(=O)(=O)c1ccc(-c2sc(C(=O)NC3CCS(=O)(=O)CC3)nc2-c2ccccc2)c2ccccc12 [Example 300/1]
pIC50 (FF) (RORγ): 7.2/7.8/7.9 | pIC50 (REN) (RORγ): 7.2/7.8/7.9 | pIC50 (FRET) [1]: 7.2/7.8/7.9
